Results as given in ChEMBL document CHEMBL5303764, “Data for DCP probe BI-3812” (2023).

Columns and labels:
[1] = target: Alpha-2B adrenergic receptor (Homo sapiens) (UniProt P18089); details: Compound concentration 10.0 uM
[2] = target: L-type Ca2+ channel (dihydropyridine site), Cav1.2 alpha-1C (Rattus norvegicus, UniProt P22002); test: CA+/DHPSI/R Eurofins SafetyScreen44 (BI); details: rat brain, probe [3H](+)PN200-110, compound concentration 10 uM, read-out: % Ctrl
[3] = target: Zinc finger and BTB domain-containing protein 32 (Homo sapiens, UniProt Q9Y2Y4); test: SPR (ZBTB32), Ontario institute for cancer research
[4] = target: Histamine H3 receptor (Homo sapiens) (UniProt Q9Y5N1); details: Compound concentration 10.0 uM
[5] = target: Kappa-type opioid receptor (Homo sapiens) (UniProt P41145); details: Compound concentration 10.0 uM
[6] = target: Sodium-dependent noradrenaline transporter (Homo sapiens) (UniProt P23975); test: NEUP/H Eurofins SafetyScreen44 (BI); details: Compound concentration 10.0 uM
[7] = target: Beta-3 adrenergic receptor (Homo sapiens) (UniProt P13945); details: Compound concentration 10.0 uM
[8] = target: Beta-2 adrenergic receptor (Homo sapiens) (UniProt P07550); details: Compound concentration 10.0 uM
[9] = target: Dual specificity protein kinase CLK1 (Homo sapiens) (UniProt P49759); test: CLK1 Invitrogen Lab (UK) kinase screen (BI); details: Compound concentration 1.0 uM
[10] = target: T1, Muscarinic acetylcholine receptor M3 (Homo sapiens, UniProt P20309); details: Compound concentration 10.0 uM
[11] = target: Tyrosine-protein kinase Lyn (Homo sapiens) (UniProt P07948); test: LYN A Invitrogen Lab (UK) kinase screen (BI); details: Compound concentration 1.0 uM
[12] = target: Leucine-rich repeat serine/threonine-protein kinase 2 (Homo sapiens) (UniProt Q5S007); test: LRRK2 Invitrogen Lab (UK) kinase screen (BI); details: Compound concentration 1.0 uM
[13] = target: Aurora kinase B (Homo sapiens) (UniProt Q96GD4); test: AURKB Invitrogen Lab (UK) kinase screen (BI); details: Compound concentration 1.0 uM
[14] = target: Histamine H1 receptor (Homo sapiens) (UniProt P35367); test: H1/PYRIL/HS Eurofins SafetyScreen44 (BI); details: Compound concentration 10.0 uM
[15] = target: 3-phosphoinositide-dependent protein kinase 1 (Homo sapiens) (UniProt O15530); test: PDK1 Invitrogen Lab (UK) kinase screen (BI); details: Compound concentration 1.0 uM
[16] = target: Glycogen synthase kinase-3 beta (Homo sapiens) (UniProt P49841); test: GSK3B Invitrogen Lab (UK) kinase screen (BI); details: Compound concentration 1.0 uM
[17] = target: Insulin receptor (Homo sapiens) (UniProt P06213); test: INSR Invitrogen Lab (UK) kinase screen (BI); details: Compound concentration 1.0 uM
[18] = target: Sodium-dependent serotonin transporter (Homo sapiens) (UniProt P31645); details: Compound concentration 10.0 uM
[19] = target: Muscarinic acetylcholine receptor M2 (Homo sapiens) (UniProt P08172); details: Compound concentration 10.0 uM
[20] = target: SRSF protein kinase 2 (Homo sapiens) (UniProt P78362); test: SRPK2 Invitrogen Lab (UK) kinase screen (BI); details: Compound concentration 1.0 uM
[21] = target: Cholecystokinin receptor type A (Homo sapiens) (UniProt P32238); test: CCKA/H Eurofins SafetyScreen44 (BI); details: Compound concentration 10.0 uM
[22] = target: Muscarinic acetylcholine receptor M1 (Homo sapiens) (UniProt P11229); test: M1/H Eurofins SafetyScreen44 (BI); details: Compound concentration 10.0 uM
[23] = target: T1, Muscarinic acetylcholine receptor M3; test: GPCRScan assay: inhibition of M3; parameters: radioligand conc. used [nm] 0.3 – 1.0, parental cells stable CHO
[24] = target: Mitogen-activated protein kinase 1 (Homo sapiens) (UniProt P28482); test: MAPK1 Invitrogen Lab (UK) kinase screen (BI); details: Compound concentration 1.0 uM
[25] = target: Mitogen-activated protein kinase 9 (Homo sapiens) (UniProt P45984); test: MAPK9 Invitrogen Lab (UK) kinase screen (BI); details: Compound concentration 1.0 uM
[26] = target: Tyrosine-protein kinase ABL1 (Homo sapiens) (UniProt P00519); test: ABL1 Invitrogen Lab (UK) kinase screen (BI); details: Compound concentration 1.0 uM
[27] = target: Mu-type opioid receptor (Homo sapiens) (UniProt P35372); details: Compound concentration 10.0 uM
[28] = target: GABA-A receptor; anion channel (Rattus norvegicus) (UniProt O09028+P15431+P18506+P18508+P19969+P20236+P23574+P23576+P28471+P28473+P30191+P62813+P63079+P63138+Q91ZM7+Q9ES14); details: Compound concentration 10.0 uM
[29] = target: Angiotensin-converting enzyme (Homo sapiens) (UniProt P12821); test: ACE(HU_AMTCH400) Eurofins SafetyScreen44 (BI); details: Compound concentration 10.0 uM
[30] = target: Cannabinoid receptor 1 (Homo sapiens) (UniProt P21554); test: CB1(HU)_AGON Eurofins SafetyScreen44 (BI); details: filed as agonist, Compound concentration 10.0 uM
[31] = target: BDNF/NT-3 growth factors receptor (Homo sapiens) (UniProt Q16620); test: NTRK2 Invitrogen Lab (UK) kinase screen (BI); details: Compound concentration 1.0 uM
[32] = target: 5-hydroxytryptamine receptor 2A (Homo sapiens) (UniProt P28223); details: Compound concentration 10.0 uM
[33] = target: RAF proto-oncogene serine/threonine-protein kinase (Homo sapiens) (UniProt P04049); test: RAF1 Invitrogen Lab (UK) kinase screen (BI); details: Compound concentration 1.0 uM
[34] = target: Sigma intracellular receptor 2 (Homo sapiens) (UniProt Q5BJF2); details: Compound concentration 10.0 uM
[35] = target: Casein kinase I isoform alpha (Homo sapiens) (UniProt P48729); test: CSNK1A1 Invitrogen Lab (UK) kinase screen (BI); details: Compound concentration 1.0 uM
[36] = target: 3',5'-cyclic-AMP phosphodiesterase 4D (Homo sapiens) (UniProt Q08499); test: PDE4D2 Eurofins SafetyScreen44 (BI); details: Compound concentration 10.0 uM
[37] = target: Alpha-2A adrenergic receptor (Homo sapiens) (UniProt P08913); details: Compound concentration 10.0 uM
[38] = target: Ribosomal protein S6 kinase alpha-4 (Homo sapiens) (UniProt O75676); test: RPS6KA4 Invitrogen Lab (UK) kinase screen (BI); details: Compound concentration 1.0 uM
[39] = target: D(1A) dopamine receptor (Homo sapiens) (UniProt P21728); test: D1/H Eurofins SafetyScreen44 (BI); details: filed as antagonist, Compound concentration 10.0 uM
Rattus norvegicus = species: Rattus norvegicus; details: Compound concentration 10.0 uM
[40] = target: Muscarinic acetylcholine receptor M4 (Homo sapiens) (UniProt P08173); details: Compound concentration 10.0 uM
[41] = target: 5-hydroxytryptamine receptor 1B (Homo sapiens) (UniProt P28222); details: Compound concentration 10.0 uM
[42] = target: Alpha-1D adrenergic receptor (Homo sapiens) (UniProt P25100); details: Compound concentration 10.0 uM
Alpha-1D adrenergic receptor (Homo sapiens), sequence (P25100 whole entry): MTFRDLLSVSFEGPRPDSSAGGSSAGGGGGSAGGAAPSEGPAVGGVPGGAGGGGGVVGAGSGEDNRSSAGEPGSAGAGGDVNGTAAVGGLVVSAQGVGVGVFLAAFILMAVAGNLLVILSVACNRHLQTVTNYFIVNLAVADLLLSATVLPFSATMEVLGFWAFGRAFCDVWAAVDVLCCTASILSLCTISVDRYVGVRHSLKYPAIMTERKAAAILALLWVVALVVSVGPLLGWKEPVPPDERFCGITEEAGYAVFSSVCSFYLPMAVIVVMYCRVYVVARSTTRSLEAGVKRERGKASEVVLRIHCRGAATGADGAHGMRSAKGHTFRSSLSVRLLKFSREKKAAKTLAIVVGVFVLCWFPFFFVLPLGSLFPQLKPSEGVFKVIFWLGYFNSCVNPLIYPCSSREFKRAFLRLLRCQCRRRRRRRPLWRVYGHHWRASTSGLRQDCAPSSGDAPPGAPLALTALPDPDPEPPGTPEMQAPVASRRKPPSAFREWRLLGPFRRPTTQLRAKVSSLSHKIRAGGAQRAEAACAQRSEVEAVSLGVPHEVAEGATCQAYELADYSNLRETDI

Muscarinic acetylcholine receptor M2 (Homo sapiens), sequence (P08172 whole entry): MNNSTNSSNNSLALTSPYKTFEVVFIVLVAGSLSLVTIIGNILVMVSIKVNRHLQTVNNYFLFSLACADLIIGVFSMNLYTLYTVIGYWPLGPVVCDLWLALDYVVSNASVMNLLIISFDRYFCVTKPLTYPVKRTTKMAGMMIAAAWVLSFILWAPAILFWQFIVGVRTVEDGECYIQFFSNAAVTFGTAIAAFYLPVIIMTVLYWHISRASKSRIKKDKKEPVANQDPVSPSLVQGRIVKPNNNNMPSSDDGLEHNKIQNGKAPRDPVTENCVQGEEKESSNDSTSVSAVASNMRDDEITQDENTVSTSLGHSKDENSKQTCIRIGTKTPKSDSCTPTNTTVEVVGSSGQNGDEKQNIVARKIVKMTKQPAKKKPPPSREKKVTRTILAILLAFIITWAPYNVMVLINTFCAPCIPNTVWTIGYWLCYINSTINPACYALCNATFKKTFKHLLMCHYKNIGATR
Sigma intracellular receptor 2 (Homo sapiens), sequence (Q5BJF2 whole entry, canonical isoform): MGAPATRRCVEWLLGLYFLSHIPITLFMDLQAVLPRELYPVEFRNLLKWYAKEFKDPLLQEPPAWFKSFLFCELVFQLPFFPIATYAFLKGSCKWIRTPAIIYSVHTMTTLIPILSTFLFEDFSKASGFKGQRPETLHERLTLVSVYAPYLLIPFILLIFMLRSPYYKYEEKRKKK
Alpha-2A adrenergic receptor (Homo sapiens), sequence (P08913 whole entry): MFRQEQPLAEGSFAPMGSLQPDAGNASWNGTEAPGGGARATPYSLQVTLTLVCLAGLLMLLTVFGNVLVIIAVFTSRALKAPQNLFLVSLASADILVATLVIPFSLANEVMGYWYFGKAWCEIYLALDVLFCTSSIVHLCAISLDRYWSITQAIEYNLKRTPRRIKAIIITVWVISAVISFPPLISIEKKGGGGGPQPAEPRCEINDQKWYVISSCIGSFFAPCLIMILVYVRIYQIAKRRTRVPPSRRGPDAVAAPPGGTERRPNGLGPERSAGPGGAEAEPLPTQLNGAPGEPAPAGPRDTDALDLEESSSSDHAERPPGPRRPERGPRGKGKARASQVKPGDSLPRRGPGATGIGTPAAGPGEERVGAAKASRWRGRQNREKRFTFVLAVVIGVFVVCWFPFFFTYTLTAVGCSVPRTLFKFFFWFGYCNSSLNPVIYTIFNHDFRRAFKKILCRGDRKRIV
Alpha-2B adrenergic receptor (Homo sapiens), sequence (P18089 whole entry): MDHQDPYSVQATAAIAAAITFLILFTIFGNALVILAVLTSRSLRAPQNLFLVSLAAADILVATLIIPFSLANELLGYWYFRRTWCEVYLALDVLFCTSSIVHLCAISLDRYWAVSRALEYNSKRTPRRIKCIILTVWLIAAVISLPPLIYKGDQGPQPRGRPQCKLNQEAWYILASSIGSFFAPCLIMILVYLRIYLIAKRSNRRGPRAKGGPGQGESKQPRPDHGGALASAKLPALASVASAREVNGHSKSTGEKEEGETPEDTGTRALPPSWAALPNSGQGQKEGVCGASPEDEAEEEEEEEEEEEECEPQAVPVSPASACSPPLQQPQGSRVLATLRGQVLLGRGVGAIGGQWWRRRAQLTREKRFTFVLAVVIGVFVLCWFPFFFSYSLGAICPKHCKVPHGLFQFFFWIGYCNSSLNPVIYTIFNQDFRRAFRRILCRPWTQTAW
5-hydroxytryptamine receptor 1B (Homo sapiens), sequence (P28222 whole entry): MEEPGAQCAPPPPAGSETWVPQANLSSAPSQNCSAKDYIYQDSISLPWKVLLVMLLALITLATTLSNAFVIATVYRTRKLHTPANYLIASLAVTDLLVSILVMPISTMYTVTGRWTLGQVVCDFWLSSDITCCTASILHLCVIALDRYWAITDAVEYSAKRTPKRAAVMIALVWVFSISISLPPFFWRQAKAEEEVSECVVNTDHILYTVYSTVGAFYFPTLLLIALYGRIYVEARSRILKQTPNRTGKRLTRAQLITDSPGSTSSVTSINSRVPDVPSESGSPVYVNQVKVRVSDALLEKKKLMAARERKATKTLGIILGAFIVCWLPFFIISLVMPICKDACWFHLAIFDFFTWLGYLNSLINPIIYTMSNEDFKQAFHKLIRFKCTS
Histamine H3 receptor (Homo sapiens), sequence (Q9Y5N1 whole entry): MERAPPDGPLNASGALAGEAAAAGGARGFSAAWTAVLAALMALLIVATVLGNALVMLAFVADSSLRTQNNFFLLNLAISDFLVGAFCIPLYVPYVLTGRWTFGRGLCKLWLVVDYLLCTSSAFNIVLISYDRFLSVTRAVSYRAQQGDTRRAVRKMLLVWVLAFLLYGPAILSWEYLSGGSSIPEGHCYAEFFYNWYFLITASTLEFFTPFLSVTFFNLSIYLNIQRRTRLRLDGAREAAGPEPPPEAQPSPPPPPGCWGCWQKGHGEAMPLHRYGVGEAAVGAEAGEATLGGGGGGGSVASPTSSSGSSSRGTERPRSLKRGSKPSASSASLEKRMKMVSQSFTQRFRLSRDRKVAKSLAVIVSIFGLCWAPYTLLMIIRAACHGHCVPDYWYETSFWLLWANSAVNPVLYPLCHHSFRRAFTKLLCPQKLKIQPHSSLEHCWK
5-hydroxytryptamine receptor 2A (Homo sapiens), sequence (P28223 whole entry): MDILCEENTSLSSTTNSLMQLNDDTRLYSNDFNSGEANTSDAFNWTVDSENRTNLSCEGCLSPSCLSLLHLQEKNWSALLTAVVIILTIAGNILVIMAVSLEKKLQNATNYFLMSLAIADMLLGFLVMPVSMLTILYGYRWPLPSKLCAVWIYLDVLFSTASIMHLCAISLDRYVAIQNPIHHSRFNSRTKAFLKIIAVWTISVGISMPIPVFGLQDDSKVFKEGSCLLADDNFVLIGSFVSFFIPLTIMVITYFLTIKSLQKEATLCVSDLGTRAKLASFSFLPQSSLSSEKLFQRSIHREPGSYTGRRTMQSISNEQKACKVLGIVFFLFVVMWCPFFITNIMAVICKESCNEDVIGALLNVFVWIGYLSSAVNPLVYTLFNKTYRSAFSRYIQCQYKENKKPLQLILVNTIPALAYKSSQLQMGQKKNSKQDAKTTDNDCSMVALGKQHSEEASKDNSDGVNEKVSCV
Kappa-type opioid receptor (Homo sapiens), sequence (P41145 whole entry): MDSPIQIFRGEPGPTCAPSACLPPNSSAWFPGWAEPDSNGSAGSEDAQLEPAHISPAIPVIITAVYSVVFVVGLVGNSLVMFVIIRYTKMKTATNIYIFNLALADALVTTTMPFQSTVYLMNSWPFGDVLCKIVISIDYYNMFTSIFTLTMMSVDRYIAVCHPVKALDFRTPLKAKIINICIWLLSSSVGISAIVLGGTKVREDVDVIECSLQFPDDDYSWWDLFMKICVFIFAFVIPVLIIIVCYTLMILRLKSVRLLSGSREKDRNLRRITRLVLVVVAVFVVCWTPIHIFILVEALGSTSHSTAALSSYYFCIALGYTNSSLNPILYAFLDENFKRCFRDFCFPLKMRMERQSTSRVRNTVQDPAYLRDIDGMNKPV
Beta-2 adrenergic receptor (Homo sapiens), sequence (P07550 whole entry, looked up): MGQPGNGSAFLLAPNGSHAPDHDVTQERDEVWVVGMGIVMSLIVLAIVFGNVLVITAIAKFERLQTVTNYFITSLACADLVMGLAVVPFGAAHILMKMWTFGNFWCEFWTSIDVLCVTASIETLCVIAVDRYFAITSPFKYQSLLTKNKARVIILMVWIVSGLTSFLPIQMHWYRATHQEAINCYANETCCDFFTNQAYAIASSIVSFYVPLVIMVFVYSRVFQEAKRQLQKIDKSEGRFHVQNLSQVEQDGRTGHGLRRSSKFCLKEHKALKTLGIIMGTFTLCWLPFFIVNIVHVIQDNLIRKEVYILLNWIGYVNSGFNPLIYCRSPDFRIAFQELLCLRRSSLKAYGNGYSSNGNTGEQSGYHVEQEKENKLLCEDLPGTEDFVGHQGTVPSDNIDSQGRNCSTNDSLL
Mu-type opioid receptor (Homo sapiens), sequence (P35372 whole entry): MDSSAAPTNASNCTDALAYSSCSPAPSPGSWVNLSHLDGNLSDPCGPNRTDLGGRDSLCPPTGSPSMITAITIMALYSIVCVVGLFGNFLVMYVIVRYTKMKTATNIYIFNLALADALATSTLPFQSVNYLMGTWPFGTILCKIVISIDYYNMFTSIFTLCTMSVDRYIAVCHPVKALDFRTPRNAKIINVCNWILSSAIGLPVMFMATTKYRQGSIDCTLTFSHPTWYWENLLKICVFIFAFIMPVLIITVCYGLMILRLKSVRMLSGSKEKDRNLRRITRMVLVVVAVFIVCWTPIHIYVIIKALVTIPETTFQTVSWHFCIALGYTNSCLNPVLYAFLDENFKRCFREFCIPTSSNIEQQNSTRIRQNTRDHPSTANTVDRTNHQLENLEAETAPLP

inhibition [1]: 20.7%
Kd [3]: No binding
inhibition [4]: 20.9%
inhibition [5]: 15.4%
inhibition [7]: 4.51%
inhibition [8]: 1.38%
residual activity [9]: 88%
inhibition [10]: 65.8%
residual activity [11]: 101%
residual activity [12]: 111%
residual activity [13]: 89%
residual activity [15]: 83%
residual activity [16]: 97%
residual activity [17]: 93%
inhibition [18]: 14.1%
inhibition [19]: 19.5%
residual activity [20]: 103%
Ki [23]: > 10 µM
pKi [23]: < 5
residual activity [24]: 98%
residual activity [25]: 99%
residual activity [26]: 93%
inhibition [27]: 17.4%
inhibition [28]: 39.6%
residual activity [31]: 88%
inhibition [32]: 7.86%
residual activity [33]: 79%
inhibition [34]: 38.2%
residual activity [35]: 91%
inhibition [37]: 15.1%
residual activity [38]: 93%
inhibition (Rattus norvegicus): 49.5%
inhibition [40]: 74.1%
inhibition [41]: 9.19%
inhibition [42]: 2.72%
SMILES: CNC(=O)COc1cc2cc(Nc3nc(N4CCC(C(=O)N(C)C)CC4)ncc3Cl)cc(OC)c2n(C)c1=O
activity at 10 µM [2]: 95% (not active)
residual activity [6]: 99%
residual activity [14]: 97%
residual activity [21]: 93%
residual activity [22]: 15%
residual activity [29]: 96%
residual activity [30]: 123%
residual activity [36]: 121%
residual activity [39]: 100%
